For twelve molecules, IC50 and EC50 results are on record in patent US20240124460A1, “METHODS AND COMPOSITIONS FOR TARGETED PROTEIN DEGRADATION” (Ranok Therapeutics (Hangzhou) Co. Ltd., priority 2020, published 2024).

Like-named read-outs stand apart in the source and are kept apart here.

Experiment [1] concerns the target T1, HSP90α protein (Homo sapiens, UniProt P07900).
T1 construct: purchased BPS Bioscience #50298
The experiment in a line: HSP90α-binding FP (BODIPY) assay. As to conditions: FP competition with BODIPY-labeled RNK04010. How it is done: Binding of test compounds to HSP90α protein was measured by fluorescent polarization (FP) using the HSP90α (N-terminal) Assay Kit (BPS Bioscience, #50298), following the manufacturer's instructions, except as noted. Fluorescently labeled HSP90-binding compounds, either the provided FITC-geldanamycin (5 nM final concentration) or RNK04010, a triazolone-based HSP90 binding small molecule labeled with BODIPY through a piperazine-phenyl linker (5 nM final concentration) were employed. A 2.5-fold serial dilution of each test compound ranging from 20 μM to 5.2 nM was assayed for binding to HSP90α. After the final step of adding HSP90α protein to each assay well, plates were mixed by brief shaking, incubated at 25° C. for 120 min for FITC-geldanamycin or 300 min for RNK04010, and fluorescence was measured using a PerkinElmer EnVision Plate Reader.

Experiment [2] relates to MV-4-11 human acute myeloid leukemia. The experiment can be described thus: MV-4-11 CCK-8 proliferation assay. As to conditions: MV-4-11 cells, 72 hr. It is filed as cell-based. The method, boiled down:
(§1)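 3-fold dilution series, 20 μM–1.02 nM; ATCC culture conditions; CCK-8 absorbance read-out; % inhibition = 100 − (D−B)/(S−B)×100, S = DMSO cells, B = medium + DMSO, no cells.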

In experiment [3] the test system is U-87 MG human glioblastoma. The experiment can be described thus: U87 MG CCK-8 proliferation assay. As to conditions: U-87 MG cells, read-out: U87MG CCK-8. It is filed as cell-based. The gist of the method:
as §1
Background: Formazan colour is commonly taken as a measure of viable cells.

In the case of `CCOc1cc(N2CCC(C(=O)N3CCC(CN4CCN(Cc5ccc(-n6c(O)nnc6-c6cc(CC)c(O)cc6O)cc5F)CC4)CC3)CC2)ccc1Nc1ncc2c(n1)N(C)c1ccccc1C(=O)N2C` [Compound 019, 2-((2-ethoxy-4-(4-(4-((4-(4-(3-(5-ethyl-2,4-dihydroxyphenyl)-5-hydroxy-4H-1,2,4-triazol-4-yl)-2-fluorobenzyl)piperazin-1-yl)methyl)piperidine-1-carbonyl)piperidin-1-yl)phenyl)amino)-5,11-dimethyl-5,11-dihydro-6H-benzo[e]pyrimido[5,4-b][1,4]diazepin-6-one], in experiment [1], the IC50 – broadly, the concentration needed to halve the response being measured – fell in the range of 100 to 1000 nM. Besides, the EC50 in experiment [2] (Homo sapiens, MV4-11) is less than 100 nM; in experiment [3] (Homo sapiens, U-87 MG, 72 h), 100 to 1000 nM.
On to `CCOc1cc(N2CCC(C(=O)N3CCC(CN4CCN(Cc5ccc(-n6c(C(=O)NC(C)C(F)(F)F)nnc6-c6cc(CC)c(O)cc6O)cc5)CC4)CC3)CC2)ccc1Nc1ncc2c(n1)N(C)c1ccccc1C(=O)N2C` (stereo not drawn) [Compound 114, 4-(4-((4-((1-(1-(4-((5,11-dimethyl-6-oxo-6,11-dihydro-5H-benzo[e]pyrimido[5,4-b][1,4]diazepin-2-yl)amino)-3-ethoxyphenyl)piperidine-4-carbonyl)piperidin-4-yl)methyl)piperazin-1-yl)methyl)phenyl)-5-(5-ethyl-2,4-dihydroxyphenyl)-N-(1,1,1-trifluoropropan-2-yl)-4H-1,2,4-triazole-3-carboxamide], for which the IC50 in experiment [1] lay in the range of 100 to 1000 nM. Also, the EC50 in experiment [2] (Homo sapiens, MV4-11) is less than 100 nM; in experiment [3] (Homo sapiens, U-87 MG, 72 h), 100 to 1000 nM.
Take `CCOc1cc(N2CCC(C(=O)N3CCC(CN4CCN(Cc5ccc(-n6c(O)nnc6-c6cc(CC)c(O)cc6O)cc5F)CC4)CC3)CC2)ccc1Nc1ncc2c(n1)N(S(C)(=O)=O)c1ccccc1C(=O)N2C` [Compound 082, 2-((2-ethoxy-4-(4-(4-((4-(4-(3-(5-ethyl-2,4-dihydroxyphenyl)-5-hydroxy-4H-1,2,4-triazol-4-yl)-2-fluorobenzyl)piperazin-1-yl)methyl)piperidine-1-carbonyl)piperidin-1-yl)phenyl)amino)-5-methyl-11-(methylsulfonyl)-5,11-dihydro-6H-benzo[e]pyrimido[5,4-b][1,4]diazepin-6-one]: the IC50 in experiment [1] was less than 100 nM. Also, the EC50 in experiment [2] (Homo sapiens, MV4-11) was less than 100 nM; in experiment [3] (Homo sapiens, U-87 MG, 72 h), less than 100 nM.
`CCOc1cc(N2CCC(C(=O)NCC3CCN(C(=O)C4CCN(Cc5ccc(-n6c(O)nnc6-c6cc(C(C)C)c(O)cc6O)cc5)CC4)CC3)CC2)ccc1Nc1ncc2c(n1)N(C)c1ccccc1C(=O)N2C` [Compound 041, N-((1-(1-(4-(3-(2,4-dihydroxy-5-isopropylphenyl)-5-hydroxy-4H-1,2,4-triazol-4-yl)benzyl)piperidine-4-carbonyl)piperidin-4-yl)methyl)-1-(4-((5,11-dimethyl-6-oxo-6,11-dihydro-5H-benzo[e]pyrimido[5,4-b][1,4]diazepin-2-yl)amino)-3-ethoxyphenyl)piperidine-4-carboxamide] showed an IC50 in experiment [1] of less than 100 nM. For the same molecule, the EC50 was less than 100 nM in experiment [2] (Homo sapiens, MV4-11) and less than 100 nM in experiment [3] (Homo sapiens, U-87 MG, 72 h).
“(1R,4R)-4-((2-carbamoyl-5-(6,6-dimethyl-4-oxo-3-(trifluoromethyl)-4,5,6,7-tetrahydro-1H-indazol-1-yl)phenyl)amino)cyclohexyl 4-(1-(4-((5,11-dimethyl-6-oxo-6,11-dihydro-5H-benzo[e]pyrimido[5,4-b][1,4]diazepin-2-yl)amino)-3-ethoxyphenyl)piperidine-4-carbonyl)piperazine-1-carboxylate [Compound 104]” had an IC50 in experiment [1] greater than 1000 nM. Besides, the EC50 in experiment [2] and in experiment [3] (72 hr) was greater than 1000 nM throughout.
In experiment [1], `CCOc1cc(N2CCC(C(=O)N3CCN(c4ccc(-n5c(O)nnc5-c5cc(C(C)C)c(O)cc5O)cc4)CC3)CC2)ccc1Nc1ncc2c(n1)N(C)c1ccccc1C(=O)N2C` [Compound 023, 2-((4-(4-(4-(4-(3-(2,4-dihydroxy-5-isopropylphenyl)-5-hydroxy-4H-1,2,4-triazol-4-yl)phenyl)piperazine-1-carbonyl)piperidin-1-yl)-2-ethoxyphenyl)amino)-5,11-dimethyl-5,11-dihydro-6H-benzo[e]pyrimido[5,4-b][1,4]diazepin-6-one] came in with an IC50 of 100 to 1000 nM. The EC50 was less than 100 nM in experiment [2] (Homo sapiens, MV4-11) and 100 to 1000 nM in experiment [3] (Homo sapiens, U-87 MG, 72 h).
Turning to `CCOc1cc(N2CCC(C(=O)N3CCC(CN4CCN(C(=O)O[C@H]5CC[C@H](Nc6cc(-n7nc(C(F)(F)F)c8c7CC(C)(C)CC8=O)ccc6C(N)=O)CC5)CC4)CC3)CC2)ccc1Nc1ncc2c(n1)N(C)c1ccccc1C(=O)N2C` [Compound 121, (1R,4R)-4-((2-carbamoyl-5-(6,6-dimethyl-4-oxo-3-(trifluoromethyl)-4,5,6,7-tetrahydro-1H-indazol-1-yl)phenyl)amino)cyclohexyl 4-((1-(1-(4-((5,11-dimethyl-6-oxo-6,11-dihydro-5H-benzo[e]pyrimido[5,4-b][1,4]diazepin-2-yl)amino)-3-ethoxyphenyl)piperidine-4-carbonyl)piperidin-4-yl)methyl)piperazine-1-carboxylate], the half-inhibitory concentration (IC50) in experiment [1] was greater than 1000 nM. The EC50 in experiment [2] (Homo sapiens, MV4-11) is greater than 1000 nM; in experiment [3] (Homo sapiens, U-87 MG, 72 h) it was greater than 1000 nM.
Molecule `CCOc1cc(N2CCC(C(=O)N3CCC(N4CCN(Cc5ccc(-n6c(O)nnc6-c6cc(C(C)C)c(O)cc6O)cc5C(F)(F)F)CC4)CC3)CC2)ccc1Nc1ncc2c(n1)N(S(C)(=O)=O)c1ccccc1C(=O)N2C` [Compound 069, 2-((4-(4-(4-(4-(4-(3-(2,4-dihydroxy-5-isopropylphenyl)-5-hydroxy-4H-1,2,4-triazol-4-yl)-2-(trifluoromethyl)benzyl)piperazin-1-yl)piperidine-1-carbonyl)piperidin-1-yl)-2-ethoxyphenyl)amino)-5-methyl-11-(methylsulfonyl)-5,11-dihydro-6H-benzo[e]pyrimido[5,4-b][1,4]diazepin-6-one] registered an IC50 in experiment [1] of 100 to 1000 nM. In addition, the EC50 in experiment [2] (Homo sapiens, MV4-11) is less than 100 nM; in experiment [3] (Homo sapiens, U-87 MG, 72 h), 100 to 1000 nM.
With `CCNC(=O)c1nnc(-c2cc(CC)c(O)cc2O)n1-c1ccc(CN2CCN(CC3CCN(C(=O)C4CCN(c5ccc(Nc6ncc7c(n6)N(C)c6ccccc6C(=O)N7C)c(OCC)c5)CC4)CC3)CC2)cc1` [Compound 134, 4-(4-((4-((1-(1-(4-((5,11-dimethyl-6-oxo-6,11-dihydro-5H-benzo[e]pyrimido[5,4-b][1,4]diazepin-2-yl)amino)-3-ethoxyphenyl)piperidine-4-carbonyl)piperidin-4-yl)methyl)piperazin-1-yl)methyl)phenyl)-N-ethyl-5-(5-ethyl-2,4-dihydroxyphenyl)-4H-1,2,4-triazole-3-carboxamide], the IC50 in experiment [1] is less than 100 nM. Moreover, the EC50 is less than 100 nM in experiment [2] (Homo sapiens, MV4-11) and less than 100 nM in experiment [3] (Homo sapiens, U-87 MG, 72 h).
Take `CCOc1cc(N2CCC(C(=O)N[C@H](C)c3ccc(CN4CCC(Cc5ccc(-n6c(O)nnc6-c6cc(C(C)C)c(O)cc6O)cc5)CC4)cc3)CC2)ccc1Nc1ncc2c(n1)N(S(C)(=O)=O)c1ccccc1C(=O)N2C` [Compound 077, (R)—N-(1-(4-((4-(4-(3-(2,4-dihydroxy-5-isopropylphenyl)-5-hydroxy-4H-1,2,4-triazol-4-yl)benzyl)piperidin-1-yl)methyl)phenyl)ethyl)-1-(3-ethoxy-4-((5-methyl-11-(methylsulfonyl)-6-oxo-6,11-dihydro-5H-benzo[e]pyrimido[5,4-b][1,4]diazepin-2-yl)amino)phenyl)piperidine-4-carboxamide]: the concentration for half-maximal inhibition (IC50) in experiment [1] was in the range of 100 to 1000 nM. Also, the EC50 in experiment [2] (Homo sapiens, MV4-11) is less than 100 nM; in experiment [3] (Homo sapiens, U-87 MG, 72 h), 100 to 1000 nM.
`CCOc1cc(N2CCC(C(=O)N3CCC(CN4CCN(Cc5ccc(-n6c(C(N)=O)nnc6-c6cc(CC)c(O)cc6O)cc5)CC4)CC3)CC2)ccc1Nc1ncc2c(n1)N(S(C)(=O)=O)c1ccccc1C(=O)N2C` [Compound 063, 4-(4-((4-((1-(1-(3-ethoxy-4-((5-methyl-11-(methylsulfonyl)-6-oxo-6,11-dihydro-5H-benzo[e]pyrimido[5,4-b][1,4]diazepin-2-yl)amino)phenyl)piperidine-4-carbonyl)piperidin-4-yl)methyl)piperazin-1-yl)methyl)phenyl)-5-(5-ethyl-2,4-dihydroxyphenyl)-4H-1,2,4-triazole-3-carboxamide] yielded an IC50 in experiment [1] of less than 100 nM. The EC50 is less than 100 nM in experiment [2] (Homo sapiens, MV4-11) and less than 100 nM in experiment [3] (Homo sapiens, U-87 MG, 72 h).
Regarding `CCOc1cc(N2CCC(C(=O)N3CCC(N4CCN(Cc5ccc(-n6c(O)nnc6-c6cc(C(C)C)c(O)cc6O)cc5F)CC4)CC3)CC2)ccc1Nc1ncc2c(n1)N(S(C)(=O)=O)c1ccccc1C(=O)N2C` [Compound 059, 2-((4-(4-(4-(4-(4-(3-(2,4-dihydroxy-5-isopropylphenyl)-5-hydroxy-4H-1,2,4-triazol-4-yl)-2-fluorobenzyl)piperazin-1-yl)piperidine-1-carbonyl)piperidin-1-yl)-2-ethoxyphenyl)amino)-5-methyl-11-(methylsulfonyl)-5,11-dihydro-6H-benzo[e]pyrimido[5,4-b][1,4]diazepin-6-one], the concentration for half-maximal inhibition (IC50) in experiment [1] is less than 100 nM. Besides, the EC50 is less than 100 nM in experiment [2] (Homo sapiens, MV4-11) and less than 100 nM in experiment [3] (Homo sapiens, U-87 MG, 72 h).
